Our source for the IC50 values is patent publication US7652047B2, “Phenylamino isothiazole carboxamidines as MEK inhibitors” (Ardea Biosciences, Inc., priority 2005, dated 2010).

The target of this assay is T1, MEK1^CA (human GST-MEK1, constitutively active, Ser218Asp and Ser222Asp) (Homo sapiens, UniProt Q02750, S218D/S222D).
T1 construct: GST; made in house; host or cells: Escherichia coli
Briefly: MEK1 enzymatic activity assay (MEK1^CA / ERK2 / MBP, [γ-33P]ATP incorporation). It counts as biochemical. The following applies: Table 1, compounds of formula I; read-out: Avg IC50. The text has this: Materials and preparation of reagents: Human GST-MEK1 and the constitutively active allele GST-MEK1^CA (harboring the mutations Ser218Asp and Ser222Asp) were subcloned into the […] expression vector pGEM4Z (Promega, Madison, Wis.) from the wild type human MEK1 cDNA. GST-MEK1^CA was expressed in Escherichia coli and partially purified using Glutathione Sepharose 4B affinity resin (Amersham Pharmacia Biotech, Piscataway, N.J.). The ERK2 allele was subcloned from MAPK2/Erk2 cDNA (wild type) in pUSEamp (Upstate Biotechnology, Inc., Waltham, Mass.) into the vector pET21a (Novagen, Madison, Wis.) resulting in an N-terminal histidine-tagged mouse ERK2 allele. […] Myelin basic protein (MBP) was purchased from Gibco BRL (Rockville, Md.). EasyTides adenosine 5′-triphosphate (ATP) ([γ-^33P]) (NEN Perkin Elmer, Wellesley, Mass.) was the source of radiolabel for all kinase reactions. Activated Raf-1 (truncated) and activated MAPKinase 2/ERK2 were purchased from Upstate, Inc. (Lake Placid, N.Y.). 4-20% Criterion Precast gels were purchased from Bio-Rad (Hercules, Calif.).
A typical 25-microliter assay contained 0.002 nanomoles MEK1^CA, 0.02 nanomoles ERK2, 0.25 nanomoles MBP, 0.25 nanomoles unlabeled ATP, and 0.1 μCi [γ^33P] ATP. The screening assay essentially comprised four additions. Five μl of diluted compound were dispensed to 96-well assay plates. Ten μl of 2.5× enzyme cocktail (MEK1^CA and ERK2 only) were then added to each well followed by a pre-incubation for 30 minutes at ambient temperature. […] Finally, 100 μl of 10% trichloroacetic acid (TCA) were added and incubated for 30 minutes at room temperature to halt the reaction and precipitate radiolabeled protein products. Reaction products were harvested on glass fiber 96 well filter plates prewetted with water and 1% pyrophosphate. The filter plate was then washed 5 times with water. Water was displaced by absolute ethanol and the plate was allowed to air dry for 30 minutes at room temperature. A back seal was applied manually and 40 μl of scintillation cocktail were dispensed to each well. A top seal was applied and the plate was counted in the TopCount for two seconds per well.

Structures are written as SMILES.

T1 sequence (Q02750 whole entry S218D/S222D): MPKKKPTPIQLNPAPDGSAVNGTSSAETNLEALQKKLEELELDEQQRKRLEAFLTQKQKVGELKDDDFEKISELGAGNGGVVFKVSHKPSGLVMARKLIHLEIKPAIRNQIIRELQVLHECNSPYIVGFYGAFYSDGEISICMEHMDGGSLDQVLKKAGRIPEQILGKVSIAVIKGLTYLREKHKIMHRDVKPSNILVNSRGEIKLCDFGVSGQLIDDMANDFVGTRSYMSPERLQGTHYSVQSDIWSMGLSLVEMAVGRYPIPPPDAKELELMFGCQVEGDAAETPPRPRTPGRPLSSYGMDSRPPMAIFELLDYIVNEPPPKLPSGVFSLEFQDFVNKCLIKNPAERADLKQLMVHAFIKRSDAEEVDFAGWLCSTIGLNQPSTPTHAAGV

As for `CC(CCc1ccccc1)NC(=N)c1c(O)nsc1Nc1ccc(Oc2ccccc2)cc1` (stereo not drawn) [compound 50], the IC50 was in the range of 1 to 100 nM.
With `CC(C)OCCCNC(=N)c1c(O)nsc1Nc1ccc(Oc2ccccc2)cc1` [compound 51], the IC50 is 1 to 100 nM.
`CCC(C)CNC(=N)c1c(O)nsc1Nc1ccc(Oc2ccccc2)cc1` (stereo not drawn) [compound 52]: the IC50 is 1 to 100 nM.
Next, `N=C(NCCN1CCCCC1)c1c(O)nsc1Nc1ccc(Oc2ccccc2)cc1` [compound 53]: 100 to 500 nM; `N=C(NCCN1CCOCC1)c1c(Nc2ccc(Oc3ccccc3)cc2)s[nH]c1=O` [compound 54]: 100 to 500 nM; `N=C(NCC(O)CO)c1c(O)nsc1Nc1ccc(Br)cc1` (stereo not drawn) [compound 55]: 100 to 500 nM.
Take `Cc1ccc(Nc2sncc2C(=N)NC2CCCC2)cc1` [compound 56]: the IC50 was greater than 500 nM.
The result for `N=C(NCC1CCCCC1)c1c(O)nsc1Nc1ccc(CO)cc1` [compound 57] reads greater than 500 nM.
For the molecule `CCCC1CCC(c2ccc(Nc3snc(O)c3C(=N)NCC3CCCCC3)cc2)CC1` (stereo not drawn) [compound 58], the IC50 is greater than 500 nM.
Take `COc1ccc(Nc2snc(O)c2C(=N)NCC2CCCCC2)cc1` [compound 60]: the IC50 was greater than 500 nM.
`N=C(NCC1CCCCC1)c1c(O)nsc1Nc1ccc(OCc2ccccc2)cc1` [compound 61]: the IC50 was 100 to 500 nM.
Next, `COc1ccc(-c2ccccc2)cc1Nc1snc(O)c1C(=N)NCC1CCCCC1` [compound 62]: greater than 500 nM; `CCC[C@H]1CC[C@H](c2ccc(Nc3s[nH]c(=O)c3C(N)=NCC(O)CO)cc2)CC1` (stereo partly drawn) [compound 63]: 100 to 500 nM; `N=C(NCC(O)CO)c1c(O)nsc1Nc1ccc(CO)cc1` (stereo not drawn) [compound 64]: greater than 500 nM.
As for `N=C(NCC1CCCCC1)c1c(O)nsc1Nc1cc(C(F)(F)F)cc(C(F)(F)F)c1` [compound 66], the IC50 was greater than 500 nM.
Next, `N=C(NCC(O)CO)c1c(O)nsc1Nc1cc(C(F)(F)F)cc(C(F)(F)F)c1` (stereo not drawn) [compound 67]: greater than 500 nM; `N=C(NCc1cccc2ccccc12)c1c(O)nsc1Nc1cc(C(F)(F)F)cc(C(F)(F)F)c1` [compound 68]: greater than 500 nM; `N=C(NCC(O)CO)c1c(O)nsc1Nc1ccccc1F` (stereo not drawn) [compound 69]: greater than 500 nM.
Next, `CC(C)c1ccc(Nc2snc(O)c2C(N)=NCC(O)CO)cc1` (stereo not drawn) [compound 70]: 100 to 500 nM; `N#Cc1cccc(Nc2snc(O)c2C(N)=NCC2CCCCC2)c1` [compound 71]: greater than 500 nM.
Next, `N=C(NCC(O)CO)c1c(O)nsc1Nc1cccc(Br)c1` (stereo not drawn) [compound 73]: 100 to 500 nM.
Turning to `N=C(NCC(O)CO)c1c(O)nsc1Nc1cccc(Cl)c1` (stereo not drawn) [compound 75], the IC50 was in the range of 100 to 500 nM.
For `COc1ccc(Nc2snc(O)c2C(=N)NCC2CCCCC2)cn1` [compound 77], the IC50 lay in the range of 1 to 100 nM.
As to `N=C(NCC(O)O)c1c(O)nsc1Nc1ccc([N+](=O)[O-])cc1` [compound 78], the IC50 is greater than 500 nM.
The result for `CC(C)c1ccc(Nc2snc(O)c2C(N)=NCC2CCCCC2)cc1` [compound 80] reads greater than 500 nM; that for `Cc1cccc(Nc2snc(O)c2C(=N)NCC2CCCCC2)c1` [compound 81], greater than 500 nM.
As to `N=C(NCC1CCCCC1)c1c(O)nsc1Nc1cccc([N+](=O)[O-])c1` [compound 82], the IC50 was in the range of 100 to 500 nM.
Next, `N=C(NCC1CCCCC1)c1c(O)nsc1Nc1cccc(Oc2ccccc2)c1` [compound 83]: 100 to 500 nM; `N=C(NCC1CCCCC1)c1c(O)nsc1Nc1ccc(Sc2ccc([N+](=O)[O-])cc2)cc1` [compound 84]: 100 to 500 nM.
The result for `N=C(NCc1cccc2ccccc12)c1c(O)nsc1Nc1ccccc1` [compound 87] reads greater than 500 nM.
The result for `N/C(=N\CC1CCCCC1)c1c(O)nsc1Nc1ccccc1C(=O)NCC1CCCCC1` [compound 88] reads greater than 500 nM.
On to `N=C(NCC1CCCCC1)c1c(O)nsc1Nc1ccc([N+](=O)[O-])cc1O` [compound 89], for which the IC50 was greater than 500 nM.
Next, `N=C(NCC1CCCCC1)c1c(O)nsc1NC1CCCCC1` [compound 90]: greater than 500 nM.
In the case of `N=C(NCC1CCCCC1)c1c(O)nsc1NC12CC3CC(CC(C3)C1)C2` [compound 92], the IC50 was greater than 500 nM.
Take `N=C(NCC1CCCCC1)c1c(O)nsc1Nc1ccccc1` [compound 93]: the IC50 is greater than 500 nM.
For `CCCCc1ccc(Nc2snc(O)c2C(=N)NCC2CCCCC2)cc1` [compound 94], the IC50 lay within 100 to 500 nM.
Next, `N=C(NCC1CCCCC1)c1c(O)nsc1Nc1ccc(OC(F)F)cc1` [compound 95]: greater than 500 nM; `N=C(NCC1CCCCC1)c1c(O)nsc1Nc1cccc(Cl)c1Cl` [compound 96]: greater than 500 nM; `N=C(NCC1CCCCC1)c1c(O)nsc1Nc1ccc(C(F)(F)F)cc1Cl` [compound 98]: greater than 500 nM.
As for `COC(=O)c1ccccc1Nc1snc(O)c1C(N)=NCC1CCCCC1` [compound 99], the IC50 is greater than 500 nM.
Next, `N=C(NCC1CCCCC1)c1c(O)nsc1Nc1ccc(Sc2ccccc2)cc1` [compound 100]: 1 to 100 nM; `N=C(NCC(O)CO)c1c(O)nsc1Nc1ccc(Cl)cc1` (stereo not drawn) [compound 101]: 100 to 500 nM.
On to `N=C(NCC1CCCCC1)c1c(O)nsc1Nc1ccc(Oc2ccccc2)nc1` [compound 103], for which the IC50 is 100 to 500 nM.
Next, `N=C(NCC1CCCCC1)c1c(O)nsc1Nc1ccc(C(=O)c2ccccc2)cc1` [compound 104]: 100 to 500 nM.
On to `N=C(NCc1cccc2ccccc12)c1c(O)nsc1Nc1cccc(Cl)c1Cl` [compound 105], for which the IC50 was greater than 500 nM.
Next, `Cc1ccc2cc(Nc3snc(O)c3C(=N)NCC3CCCCC3)ccc2n1` [compound 106]: greater than 500 nM.
On to `Cc1cc(Nc2snc(O)c2C(=N)NCC2CCCCC2)c2ccccc2n1` [compound 107], for which the IC50 is greater than 500 nM.
Next, `N=C(NCC1CCCCC1)c1c(O)nsc1NCc1ccc(C(F)(F)F)cc1` [compound 108]: greater than 500 nM.
Take `Cc1ccc(Oc2ccc(Nc3snc(O)c3C(=N)NCC3CCCCC3)cc2)cc1` [compound 109]: the IC50 lay in the range of 1 to 100 nM.
With `N=C(N)c1c(O)nsc1Nc1ccc(Oc2ccccc2)cc1` [compound 110], the IC50 was 100 to 500 nM.
With `N=C(NCC1CCCCC1)c1c(O)nsc1Nc1ccc2c(c1)Cc1ccccc1-2` [compound 111], the IC50 is greater than 500 nM.
The result for `COCCCNc1snc(O)c1C(=N)NCCOc1ccccc1` [compound 112] reads greater than 500 nM; that for `N=C(NCCOc1ccccc1)c1c(O)nsc1NCC1CCCO1` (stereo not drawn) [compound 113], greater than 500 nM; that for `N=C(NCCc1ccc(O)cc1)c1c(O)nsc1NCCc1ccc(O)cc1` [compound 114], greater than 500 nM.
The result for `COc1ccc(CNC(=N)c2c(O)nsc2NCc2ccc(OC)cc2)cc1` [compound 115] reads greater than 500 nM.
The result for `N=C(NCC1CCCCC1)c1c(O)nsc1NC1CCc2ccccc21` (stereo not drawn) [compound 116] reads greater than 500 nM; that for `CC(C)Nc1snc(O)c1C(=N)NCC1CCCCC1` [compound 117], greater than 500 nM.
As for `CC(Nc1snc(O)c1C(=N)NCC1CCCCC1)c1ccccc1` (stereo not drawn) [compound 118], the IC50 is greater than 500 nM.
The result for `N=C(NCC1CCCCC1)c1c(O)nsc1NCC1CC1` [compound 119] reads greater than 500 nM; that for `N=C(NCC1CCCCC1)c1c(O)nsc1NCCc1ccccc1` [compound 120], greater than 500 nM.
